Experimental findings from US7893064B2, “Hydrazone derivatives as kinase inhibitors” (Janssen Pharmaceutica NV, priority 2006, dated 2011) are described below.

Assay [1] has as its target T1, EGFR kinase (GST fusion of intracellular portion of EGFR, NM_005228) (Homo sapiens, UniProt P00533).
T1 construct: The intracellular portion of EGFR started at nucleotide 2189 (corresponding to amino acid 667) and ended at the termination codon; made in house; host or cells: Sf9 insect cells (baculovirus)
Put plainly: EGFR Kinase Assay. In kind it is biochemical. Conditions: GSTEGFR, ATP 5 μM, biotinylated polyGluTyr, 33P Flashplate; read-out: EGFR Inhibition (%) IC50. The text has this:
The portion was PCR amplified with primers that added the lambda attB sequences to each end, recombined into an entry vector, then into a GST destination vector (as described in Gateway Technologies Manual by Invitrogen Corporation, Carlsbad, Calif.).
The destination vector was recombined in the DH10BAC strain of bacteria to produce a bacmid. The bacmid was transfected into Sf9 cells and the supernatant containing the baculovirus was collected. The GSTEGFR protein was purified using large cultures of Sf9 cells infected with stock virus. After an appropriate period of time, the cells were collected and lysed. The GSTEGFR was then purified from the lysate on Glutathione-Sepharose columns (as described by Amersham Biosciences, Buckinghamshire, United Kingdom).
The free biotin was separated from the biotinylated polyGluTyr on a gel filtration column.
A mixture of a 10× kinase buffer (500 mM Tris at pH 8.0, 100 mM Magnesium Chloride and 1 mM Sodium Vanadate), DTT (1 mM final from 500 mM stock), ATP (5 μM final from 10 mM stock), biotinylated polyGluTyr (10 μg/μL stock), γ-^33P ATP (10 μCi/μL stock) and water was added to each well (90 μL/well) of a Streptavidin Flashplate (Perkin Elmer, Wellesley, Mass.).
Test compound in 100% DMSO (2 μL) was added to the appropriate wells. Diluted GSTEGFR (1:300 dilution in 50 mM Tris at pH 8.0 and 0.1% bovine serum albumin) (10 μL) was added to the wells to initiate the reactions.
The plates were incubated at 30° C. for 1 hr with shaking. The reacted contents were removed and the plates were sequentially washed three times with a 1×PBS stop buffer (300 μL without Magnesium and Calcium) and 100 mM EDTA. After the final wash, the same stop buffer (200 μL) was added to the wells. The plates were then sealed and read on the TopCount scintillation counter.
Test compounds were assayed in triplicate at 16 concentrations at half-log dilutions starting at 200 uM. A maximum and minimum signal for the assay was determined on each plate. The percent inhibition of a test compound was calculated according to the formula
For a series of test concentrations, the IC50 was derived by graphing percent inhibition against the log of the concentrations tested for a given compound.

For assay [2], the target named is T2, HER2 (GST-HIS6-Thrombin fusion, amino acids 679 to 1255 of HER-2) (Homo sapiens, UniProt P04626).
T2 construct: GST (N); HIS6 (N); thrombin cleavage site (N); purchased Proqinase, Freiburg, Germany
Put plainly: HER2 Screening Assay. The conditions noted are these: 10 μM ATP, biotin-poly(GT) 4:1, 33P FlashPlate. It is filed as biochemical. On the procedure:
A kinase reaction mixture was prepared containing 50 mM Tris-HCl pH=8, 10 mM MgCl2, 0.1 mM […], 1 mM DTT, 10 μM ATP, 0.025 μM biotinylated histone-H1 peptide substrate and 0.2 μCuries per well ^33P-γ-ATP (2000-3000 Ci/mmol). 70 μL of the kinase reaction mixture was dispensed into the well of a streptavidin coated FlashPlate™ (Cat. # SMP103, NEN, Boston, Mass.).
Test compound stock in 100% DMSO (1 μL) was added to the wells resulting in a final concentration of 1% DMSO in the reaction with a 100 μL final reaction volume. Each enzyme was diluted in 50 mM Tris-HCl pH=8.0, 0.1% BSA and 30 μL was added to each well to initiate the reaction. The reaction was incubated for one hour at 30° C. At the end of the 1 hr incubation, the reaction was terminated by aspirating the mixture from the plate and washing the wells twice with PBS containing 100 mM EDTA. The biotinylated peptide substrate became immobilized on the Flashplate™ and the incorporation of ^33P-γ-ATP was measured by reading the plate on a scintillation counter. Inhibition of the enzymatic activity was measured by observing a reduced amount of ^33P-γ-ATP incorporated into the immobilized peptide.
The HER2 construct consisted of a fusion of GST (Glutathione-S-Transferase), HIS6 Thrombin and the nucleotides encoding amino acids 679 to 1255 of HER-2 (Accession number M11730) (Proqinase, Freiburg, Germany). The assay used 200 ng of the N-terminal biotinylated peptide biotin-poly(GT) 4:1 (HER2) per well.
A maximum and minimum signal for the assay was determined on each plate. The percent inhibition of a test compound was calculated according to the formula: […]
For a series of test concentrations, the IC50 was derived by graphing percent inhibition against the log of the concentrations tested for a given compound with results shown in Table 2.

Assay [3] has as its system BT474 breast carcinoma cells. Put plainly: Cell Proliferation Inhibition Assay (14C-thymidine incorporation), BT-474. It is filed as cell-based. The conditions noted are these: Homo sapiens, BT-474 cells. An excerpt:
(§1) The ability of a test compound to inhibit unregulated cell proliferation may be determined by measuring incorporation of ^14C-labelled thymidine into newly synthesized DNA within cell lines derived from carcinomas originating from several tissues. Accordingly, the anti-proliferative effect of a compound on cells with a variety of phenotypes may be determined.
(§2) Carcinoma cell lines were obtained from the American Type Culture Collection (ATCC) and include those such as N87 (ATCC Cat. #), SKBR3 breast carcinoma (ATCC Cat. #HTB-30) and BT474 breast carcinoma (ATCC Cat. #HTB-20)
(§3) The carcinoma cells are trypsinized and counted. The cells (3000-8000 count) are added to each well of a 96-well CytoStar tissue culture treated scintillating microplate (Amersham #RPNQ0160) in complete medium (100 μL) and the plate is then incubated in complete medium for 24 hrs at 37° C. in an inert atmosphere containing 5% CO2. Test compound (1 μL) in 100% DMSO is added to the plate test-wells with DMSO only added to control-wells. The plate is incubated in complete medium for a second 24 hr period at 37° C. in an atmosphere containing 5% CO2.
(§4) An aliquot of a solution of Methyl ^14C-thymidine (56 mC/mmol) (NEN #NEC568 or Amersham #CFA532) and complete medium (20 μL to provide 0.2 μCi/well) is then added to each well and the plate is incubated for a third 24 hr period at 37° C. in an atmosphere containing 5% CO2. The plate contents are then discarded, the plate is washed twice with PBS (200 μL) and then PBS (200 μL) is added to each well. The plate is sealed and the degree of methyl ^14C-thymidine incorporation is quantified on a Packard Top Count.

The test system of another assay is N87 carcinoma cells. Put plainly: Cell Proliferation Inhibition Assay (14C-thymidine incorporation), N87. It is filed as cell-based.
From the text: as §1, §2, §3, §4
On the technique in general: Uptake of a labelled nucleoside into DNA is a usual measure of proliferation.

Assay [4] relates to SKBR3 breast carcinoma cells. Put plainly: Cell Proliferation Inhibition Assay (14C-thymidine incorporation), SK-BR-3. It is filed as cell-based. The conditions noted are these: Homo sapiens, SK-BR-3 cells.
From the text: as §1, §2, §3, §4

By IC50 is commonly meant the point on the concentration scale where inhibition reaches its midpoint.

T1 sequence (P00533 669-1210 limits assumed): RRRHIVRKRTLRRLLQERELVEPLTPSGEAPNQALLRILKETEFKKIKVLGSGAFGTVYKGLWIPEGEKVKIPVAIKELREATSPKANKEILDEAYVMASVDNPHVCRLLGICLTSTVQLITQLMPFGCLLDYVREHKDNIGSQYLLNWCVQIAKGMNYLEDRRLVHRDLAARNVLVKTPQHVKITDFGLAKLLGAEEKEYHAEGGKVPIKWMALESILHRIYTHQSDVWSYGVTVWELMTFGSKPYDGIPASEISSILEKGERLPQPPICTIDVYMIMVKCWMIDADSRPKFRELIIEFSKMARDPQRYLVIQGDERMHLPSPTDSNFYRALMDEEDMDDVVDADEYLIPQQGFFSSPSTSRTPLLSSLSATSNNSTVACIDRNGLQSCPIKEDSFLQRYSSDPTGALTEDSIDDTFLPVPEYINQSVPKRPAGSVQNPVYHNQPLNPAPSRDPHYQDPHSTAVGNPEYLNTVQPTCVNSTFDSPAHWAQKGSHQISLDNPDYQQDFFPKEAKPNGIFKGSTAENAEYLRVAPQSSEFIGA
T2 sequence (P04626 679-1255): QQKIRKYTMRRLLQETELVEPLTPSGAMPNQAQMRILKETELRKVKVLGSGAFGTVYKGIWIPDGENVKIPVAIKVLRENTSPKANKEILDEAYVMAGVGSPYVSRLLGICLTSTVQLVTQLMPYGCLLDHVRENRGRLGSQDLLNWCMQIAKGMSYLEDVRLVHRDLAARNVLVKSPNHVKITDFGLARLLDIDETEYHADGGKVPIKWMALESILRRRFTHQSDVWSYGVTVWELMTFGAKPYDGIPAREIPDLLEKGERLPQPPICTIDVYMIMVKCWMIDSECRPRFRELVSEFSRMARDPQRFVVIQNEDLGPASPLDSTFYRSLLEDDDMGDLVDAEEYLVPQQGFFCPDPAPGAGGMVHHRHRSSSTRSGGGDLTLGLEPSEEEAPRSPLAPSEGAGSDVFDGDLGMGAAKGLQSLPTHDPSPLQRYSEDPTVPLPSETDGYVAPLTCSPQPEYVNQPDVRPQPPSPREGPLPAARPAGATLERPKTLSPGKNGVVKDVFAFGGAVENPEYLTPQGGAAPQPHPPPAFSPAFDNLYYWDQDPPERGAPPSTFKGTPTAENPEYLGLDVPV

For the compound `COc1ccc(NN=Cc2c(N)ncnc2Nc2ccc3c(cnn3Cc3cccc(F)c3)c2)cc1` [Cpd 1, N-[1-(3-fluoro-benzyl)-1H-indazol-5-yl]-5-[(4-methoxy-phenyl)-hydrazonomethyl]-pyrimidine-4,6-diamine], the IC50 in assay [1] was determined as 49 nM; in assay [2] it was 118 nM.

Regarding `COC[C@H]1CCCN1N=Cc1c(N)ncnc1Nc1ccc2c(cnn2Cc2cccc(F)c2)c1` [Cpd 7, N-[1-(3-fluoro-benzyl)-1H-indazol-5-yl]-5-{[(2R)-2-methoxymethyl-pyrrolidin-1-ylimino]-methyl}-pyrimidine-4,6-diamine], the IC50 in assay [1] turned out to be 31.2 nM; in assay [2] it was 72.2 nM.

For `Nc1ncnc(Nc2ccc3c(cnn3Cc3cccc(F)c3)c2)c1C=NN1CCN(CCO)CC1` [Cpd 9, 2-[4-({4-amino-6-[1-(3-fluoro-benzyl)-1H-indazol-5-ylamino]-pyrimidin-5-ylmethylene}-amino)-piperazin-1-yl]-ethanol], the IC50 was found to be 9.77 nM in assay [1]; 8.37 nM in assay [2]; 13.5 nM in assay [3]; 58.4 nM in the assay with N87 carcinoma cells; 58.5 nM in assay [4].

`Nc1ncnc(Nc2ccc3c(cnn3Cc3cccc(F)c3)c2)c1C=NN1CCOCC1` [Cpd 4, N-[1-(3-fluoro-benzyl)-1H-indazol-5-yl]-5-(morpholin-4-yliminomethyl)-pyrimidine-4,6-diamine]: the IC50 worked out at 16.5 nM in assay [1]; 6.6 nM in assay [2]; 30.5 nM in assay [3]; 90.5 nM in the assay with N87 carcinoma cells; 122 nM in assay [4].

Turning to `Nc1ncnc(Nc2ccc3c(cnn3Cc3cccc(F)c3)c2)c1C=NN1CCCCC1` [Cpd 3, N-[1-(3-fluoro-benzyl)-1H-indazol-5-yl]-5-(piperidin-1-yliminomethyl)-pyrimidine-4,6-diamine], the IC50 stood at 18.3 nM in assay [2], 48.5 nM in assay [3], 365 nM with N87 carcinoma cells and 691 nM in assay [4].

As to `CN(C)/N=C/c1c(N)ncnc1Nc1ccc2c(cnn2Cc2cccc(F)c2)c1` [Cpd 5, 5-(dimethyl-hydrazonomethyl)-N-[1-(3-fluoro-benzyl)-1H-indazol-5-yl]-pyrimidine-4,6-diamine], the IC50 in assay [1] is 8.2 nM; in assay [2] it was 2.4 nM; in assay [3], 63 nM; in the assay with N87 carcinoma cells, 131 nM; in assay [4], 148 nM.

With `COC[C@@H]1CCCN1N=Cc1c(N)ncnc1Nc1ccc2c(cnn2Cc2cccc(F)c2)c1` [Cpd 8, N-[1-(3-fluoro-benzyl)-1H-indazol-5-yl]-5-{[(2S)-2-methoxymethyl-pyrrolidin-1-ylimino]-methyl}-pyrimidine-4,6-diamine], the IC50 amounted to 26.5 nM in assay [1] and 38.8 nM in assay [2].

`CNN=Cc1c(N)ncnc1Nc1ccc2c(cnn2Cc2cccc(F)c2)c1` [Cpd 2, N-[1-(3-fluoro-benzyl)-1H-indazol-5-yl]-5-(methyl-hydrazonomethyl)-pyrimidine-4,6-diamine]: the IC50 in assay [1] was 12.4 nM; in assay [2], 83.6 nM.

Regarding `Nc1ncnc(Nc2ccc3c(cnn3Cc3cccc(F)c3)c2)c1C=NNCC(F)(F)F` [Cpd 10, N-[1-(3-fluoro-benzyl)-1H-indazol-5-yl]-5-[(2,2,2-trifluoro-ethyl)-hydrazonomethyl]-pyrimidine-4,6-diamine], the IC50 in assay [1] came to 52.9 nM; in assay [2], 19.8 nM.

With `CN1CCN(N=Cc2c(N)ncnc2Nc2ccc3c(cnn3Cc3cccc(F)c3)c2)CC1` [Cpd 6, N-[1-(3-fluoro-benzyl)-1H-indazol-5-yl]-5-[(4-methyl-piperazin-1-ylimino)-methyl]-pyrimidine-4,6-diamine], the IC50 was determined as 15.6 nM in assay [1] and 8.4 nM in assay [2].
